Results as given in PubChem BioAssay (NCI).
Values joined by “and” are separate entries in the source; they are usually repeats but may differ in a detail not shown here. Identical values can stand only once.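 The compound was tested at five concentrations on cells cultured in 96-well plates, with a 48-hour exposure period. At the GI50, growth is halved. TGI: concentration producing complete growth inhibition.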

Assays:
Assay in all cases: growth of human tumour cells (NCI), 48 h
U251 CNS = tested on: U251 CNS
786-0 renal = tested on: 786-0 renal
M14 melanoma = tested on: M14 melanoma
HCT-116 colon = tested on: HCT-116 colon
NCI-H460 lung = tested on: NCI-H460 lung
SK-MEL-2 melanoma = tested on: SK-MEL-2 melanoma
MOLT-4 leukemia = tested on: MOLT-4 leukemia
SN12C renal = tested on: SN12C renal
RXF 393 renal = tested on: RXF 393 renal
CAKI-1 renal = tested on: CAKI-1 renal

Row | SMILES | GI50 (U251 CNS) | TGI (U251 CNS) | GI50 (786-0 renal) | TGI (786-0 renal) | GI50 (M14 melanoma) | TGI (M14 melanoma) | GI50 (HCT-116 colon) | TGI (HCT-116 colon) | GI50 (NCI-H460 lung) | TGI (NCI-H460 lung) | GI50 (SK-MEL-2 melanoma) | TGI (SK-MEL-2 melanoma) | GI50 (MOLT-4 leukemia) | TGI (MOLT-4 leukemia) | GI50 (SN12C renal) | TGI (SN12C renal) | GI50 (RXF 393 renal) | TGI (RXF 393 renal) | GI50 (CAKI-1 renal) | TGI (CAKI-1 renal)
1 | CC(=O)[CH-]C(=O)c1ccccc1.CC(=O)[CH-]C(=O)c1ccccc1.CC1(C)OCC(C2OC3OC(C)(C)OC3C2[O-])O1.CC[O-].[Ti+4] (stereo not given) | 13.1 µM | 28.3 µM | 18.4 µM | 36 µM | 16.3 µM | 36.1 µM | 14.9 µM | 28.1 µM | 10.8 µM | 24.8 µM | 12 µM | 27.8 µM | 15.5 µM | 82.1 µM | 15.6 µM | 33.1 µM | 3.36 µM | 14.9 µM | 22.8 µM | 40.9 µM
2 | Cc1cc2c(cc1Cl)S/C(=C/C(=O)O)C(Nc1cccc3nsnc13)=NS2(=O)=O | 35.6 µM | > 71.7 µM | 36.5 µM | > 62.2 µM | > 47 µM | > 60.5 µM | 33.5 µM | > 59.2 µM | > 39.8 µM | > 65.1 µM | > 58.6 µM | > 77.8 µM | 17.9 µM | > 59.4 µM | 27 µM | > 53.4 µM | > 52.7 µM | > 68.5 µM | 56 µM | > 76.6 µM
3 | O=C(NCCN1CCNCC1)c1ccc(Nc2nc3ccccc3c3occc23)cc1 | 17.9 µM | 33.1 µM | 8.06 µM | 21.6 µM | 1.94 µM | 3.98 µM | 4.11 µM | 15.8 µM | 17.4 µM | > 100 µM | 18.3 µM | 36.4 µM | 20.4 µM | 36.9 µM | 18.2 µM | 34.9 µM | 6.92 µM | 26.4 µM | 15.6 µM | 32.3 µM
4 | COc1cccc(COc2cc(-n3cnc4ccccc43)sc2C(N)=O)c1 | > 13.6 µM | > 25 µM | > 25 µM | > 25 µM | > 25 µM | > 25 µM | 12.8 µM | > 25 µM | 9.23 µM | > 25 µM | > 15.4 µM | > 25 µM | > 14.8 µM | > 25 µM | > 20.5 µM | > 25 µM | 5.69 µM | > 25 µM | > 25 µM | > 25 µM
5 | c1ccc2[nH]c(CNc3ccc(C4C[Se]N=N4)cc3)nc2c1 (stereo not given) | – | > 100 µM | – | > 100 µM | – | > 100 µM | – | > 100 µM | – | > 100 µM | – | > 100 µM | – | 40.5 µM | – | > 100 µM | – | > 100 µM | – | > 100 µM
6 | COc1ccccc1NC(=O)/C(=C/c1ccccc1)C(C)=O | – | 15 µM | – | > 100 µM | – | 67.6 µM | – | > 100 µM | – | > 100 µM | – | > 100 µM | – | > 100 µM | – | > 100 µM | – | 53.8 µM | – | > 100 µM
7 | O=C(Cl)C1=C(c2ccccc2)C1c1ccccc1 (stereo not given) | – | > 100 µM | – | > 100 µM | – | > 100 µM | – | > 100 µM | – | > 100 µM | – | > 100 µM | – | > 100 µM | – | > 100 µM | – | > 100 µM | – | > 100 µM
8 | Clc1ccc2c(c1)N(c1ncnc3ccc(-c4cnc5[nH]ncc5c4)cc13)CC2 | 9.79 µM | > 100 µM | 0.689 µM | > 100 µM | 0.869 µM | > 100 µM | 1.15 µM | > 100 µM | 0.463 µM | > 100 µM | 7 µM | > 100 µM | 0.465 µM | > 100 µM | 0.407 µM | > 100 µM | 0.229 µM | 0.97 µM | 0.316 µM | > 100 µM
9 | CCOc1ccc(Nc2c3ccccc3nc3ccccc23)cc1 | 0.464 µM and 0.381 µM | 2.25 µM and 1.9 µM | 0.666 µM and 0.34 µM | 6.67 µM and 2.61 µM | 0.359 µM and 0.312 µM | 1.51 µM and 1.69 µM | 0.335 µM and 0.318 µM | 1.32 µM and 2.81 µM | 0.407 µM and 0.347 µM | 3.03 µM and 1.82 µM | 0.402 µM and 0.413 µM | 3.76 µM and 1.69 µM | 0.476 µM and 0.258 µM | 5.59 µM and 1.27 µM | 1.08 µM and 1 µM | 14.5 µM and 9.76 µM | 0.397 µM and 0.402 µM | 2.25 µM and 2.71 µM | 0.359 µM and 0.376 µM | 3.32 µM and 1.75 µM
10 | Fc1ccc2nc(-c3cc(-c4ccc5c(c4)OCO5)n[nH]3)[nH]c2c1 | 2.49 µM | > 35.8 µM | 5.89 µM | > 80 µM | 2.78 µM | > 32.5 µM | 3.51 µM | > 32.5 µM | 4.22 µM | > 40.2 µM | 2.87 µM | 17.1 µM | 2.56 µM | > 69.4 µM | 4.59 µM | > 100 µM | 2.81 µM | 32.1 µM | 2.44 µM | > 55.7 µM
11 | O=C1c2cccc3cccc(c23)C(=O)N1O | – | > 100 µM | – | > 100 µM | – | > 100 µM | – | > 100 µM | – | > 100 µM | – | > 100 µM | – | > 100 µM | – | > 100 µM | – | 68.5 µM | – | > 100 µM
12 | O=C1c2ccccc2-c2c1c1c(NCCCO)nc3ccccc3c1n2Cc1ccccc1 | 20.8 µM | 44.9 µM | 21.3 µM | 43.7 µM | 26.8 µM | 58.2 µM | 15.8 µM | 35.1 µM | 17.5 µM | 38.1 µM | 20.4 µM | 52.3 µM | 5.94 µM | 42.8 µM | 26 µM | 62.5 µM | 32.5 µM | 86.6 µM | 18.6 µM | 38.4 µM
13 | CCCCCCCCCCCCCCCCCCOCC(COCCOCC[N+]1(CCCCCC(=O)[O-])CCCC1)Oc1ncccn1 (stereo not given) | – | 8.5 µM | – | 22.2 µM | – | 22.7 µM | – | 15.8 µM | – | 16.8 µM | – | 20 µM | – | 20.7 µM | – | 16.7 µM | – | 10.4 µM | – | 22.7 µM
14 | Cc1c(C)c(CC(=O)N2CC2)c(C)c(C)c1CC(=O)N1CC1 | – | > 67.3 µM | – | > 65.9 µM | – | 18.9 µM | – | 28.5 µM | – | 50.2 µM | – | 32.6 µM | – | 2.91 µM | – | > 56.7 µM | – | 12.8 µM | – | 32.4 µM
15 | O=C(O)c1ccccc1C(=O)c1ccc2c(c1)Cc1ccccc1-2 | – | > 100 µM | – | > 100 µM | – | > 100 µM | – | > 100 µM | – | > 100 µM | – | > 100 µM | – | > 100 µM | – | > 100 µM | – | > 100 µM | – | > 100 µM
16 | C=C1C(=O)C23C(O)C1CC[C@H]2C12CCCC(C)(COC(C)=O)[C@H]1[C@H](O)[C@]3(O)OC2 (stereo not given in full) | – | 5.4 µM | – | 2.24 µM | – | 2.84 µM | – | 2.3 µM | – | 6.36 µM | – | 3.49 µM | – | 0.72 µM | – | 3.44 µM | – | 1.58 µM | – | 3.44 µM
